The record followed here is paper PMC8746632, “Design and Synthesis of New Thiophene/Thieno[2,3-d]pyrimidines along with Their Cytotoxic Biological Evaluation as Tyrosine Kinase Inhibitors in Addition to Their Apoptotic and Autophagic Induction” (Molecules, 2021).

Structures are written as SMILES.

This assay addresses T1, FLT3 kinase (Fms-like tyrosine kinase 3) (Homo sapiens, UniProt P36888).
T1 sequence (P36888 27-993): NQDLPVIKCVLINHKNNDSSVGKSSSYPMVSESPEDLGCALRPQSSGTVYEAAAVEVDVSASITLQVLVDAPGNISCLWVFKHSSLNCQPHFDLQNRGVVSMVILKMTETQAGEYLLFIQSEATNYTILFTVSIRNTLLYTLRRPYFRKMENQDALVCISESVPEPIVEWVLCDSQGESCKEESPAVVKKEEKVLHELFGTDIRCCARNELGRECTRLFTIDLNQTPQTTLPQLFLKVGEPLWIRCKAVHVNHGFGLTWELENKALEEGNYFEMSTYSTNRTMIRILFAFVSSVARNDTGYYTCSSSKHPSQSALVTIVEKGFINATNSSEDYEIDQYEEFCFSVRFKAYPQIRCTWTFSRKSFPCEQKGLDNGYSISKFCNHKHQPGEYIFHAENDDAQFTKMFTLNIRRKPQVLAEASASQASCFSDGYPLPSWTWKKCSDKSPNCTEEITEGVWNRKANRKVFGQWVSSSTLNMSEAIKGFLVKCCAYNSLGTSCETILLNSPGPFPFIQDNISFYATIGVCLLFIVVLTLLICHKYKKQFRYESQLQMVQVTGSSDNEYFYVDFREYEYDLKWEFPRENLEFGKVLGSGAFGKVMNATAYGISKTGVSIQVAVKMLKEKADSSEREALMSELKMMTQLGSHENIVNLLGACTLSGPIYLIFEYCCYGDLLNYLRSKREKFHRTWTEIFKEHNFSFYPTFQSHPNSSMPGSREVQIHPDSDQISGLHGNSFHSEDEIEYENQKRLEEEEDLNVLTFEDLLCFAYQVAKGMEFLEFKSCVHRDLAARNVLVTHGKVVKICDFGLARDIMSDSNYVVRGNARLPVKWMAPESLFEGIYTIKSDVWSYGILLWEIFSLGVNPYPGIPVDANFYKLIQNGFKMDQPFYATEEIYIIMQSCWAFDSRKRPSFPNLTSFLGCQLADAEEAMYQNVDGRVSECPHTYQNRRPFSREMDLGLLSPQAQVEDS
Put plainly: FLT3 Kinase Assay Kit, ADP production, luminescence, dose response. In kind it is biochemical.
Regarding `O=C(CCl)NNc1ncnc2sc3c(c12)CCCC3` [compound 5, 2-Chloro-N′-(5,6,7,8,tetrahydrobenzo[4,5]thieno[2,3-d]pyrimidin-4-yl)acetohydrazide], the IC50 (as a rule, the point on the concentration scale where inhibition reaches its midpoint) is 32.4 ± 5.5 µM.
Molecule `CCOC(=O)c1c(NC(=O)CCl)sc2c1CCCC2` [compound 10, 10] yielded an IC50 of 40 ± 5.5 µM.
Take `CC1=CC(=O)N(Nc2ncnc3sc4c(c23)CCCC4)C1=O` [compound 8, 3-Methyl-1-(5,6,7,8-tetrahydrobenzo[4,5]thieno[2,3-d]pyrimidin-4-ylamino)-1H-pyrrole-2,5-dione]: the concentration for half-maximal inhibition (IC50) was determined as 40.5 ± 6.3 µM.
`CC(C)(C)c1cc(Nc2ncnc3sc4c(c23)CCCC4)on1` [9b, N-(3-tert-butylisoxazol-5-yl)-5,6,7,8-tetrahydrobenzo[4,5]thieno[2,3-d]pyrimidin-4-amine] registered an IC50 of 39.6 ± 4.6 µM.
